From patent US11116778B2, “Prodrugs of ALOX-15 inhibitors and methods of using the same” (EMPIRICO INC., priority 2019, dated 2021)
Like-named read-outs stand apart in the source and are kept apart here.

How the values were obtained:
15-lipoxygenase = biological target: T1, 15-lipoxygenase (Oryctolagus cuniculus, UniProt P12530); experiment: 15-HETE levels in rabbit nasal mucosa after nasal administration of compound 5 (IL4/IL13 inflammation model); type: in vivo; conditions: rostral and caudal regions
T1 construct: Animals were then euthanized and nasal mucosa was collected; tissue Covance; host or cells: nasal mucosa of NZW rabbits
T1 sequence (P12530 1-663): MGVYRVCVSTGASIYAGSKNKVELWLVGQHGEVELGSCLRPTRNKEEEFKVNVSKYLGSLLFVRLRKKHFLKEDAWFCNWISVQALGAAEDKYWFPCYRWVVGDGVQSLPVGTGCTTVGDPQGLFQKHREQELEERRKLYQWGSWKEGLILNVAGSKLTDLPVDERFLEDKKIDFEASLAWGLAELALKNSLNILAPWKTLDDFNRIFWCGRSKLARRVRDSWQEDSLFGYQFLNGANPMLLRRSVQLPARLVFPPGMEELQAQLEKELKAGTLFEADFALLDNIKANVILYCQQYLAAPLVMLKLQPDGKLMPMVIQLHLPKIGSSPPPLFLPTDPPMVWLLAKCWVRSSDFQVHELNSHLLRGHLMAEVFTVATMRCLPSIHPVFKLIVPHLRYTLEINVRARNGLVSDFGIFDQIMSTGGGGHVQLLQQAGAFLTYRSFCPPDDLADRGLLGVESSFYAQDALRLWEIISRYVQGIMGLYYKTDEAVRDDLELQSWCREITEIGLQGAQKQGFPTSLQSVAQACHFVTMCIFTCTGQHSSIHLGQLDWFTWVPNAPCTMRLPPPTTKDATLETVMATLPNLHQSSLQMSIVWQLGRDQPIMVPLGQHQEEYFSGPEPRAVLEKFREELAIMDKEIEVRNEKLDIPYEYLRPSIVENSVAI
Description: Six (6) female NZW rabbits were employed in this study. Rabbits were obtained from Covance (Denver Pa.). Rabbits were between approximately 10 and 12 months of age at the time of study start. At time point 0, all animals received 50 μL of solution containing rabbit IL4 (RND Systems/Biotechne) and human IL13 (PreproTech) at a concentration of 0.25 mg/mL each in 0.5×PBS containing 12.5 mg/mL BSA per nostril. This was administered intranasally via a venous catheter attached to a micropipette. The animal was positioned in a supine manner and the venous catheter inserted into the nostril. The volume was introduced into the nasal cavity and the same procedure was repeated with the other nostril.
At the 2, 4, and 6 hour time points, animals in Group 1 (n=3) received 0.2 mL of vehicle (0.9% saline) per nostril and the animals in Group 2 (n=3) received 0.2 mL of compound 5 (10 mM) in vehicle per nostril. […]
Nasal lavage and serum samples were analyzed for the levels of compound 3 and compound 5. […] Compound 3 was quantified using LC-MS/MS (QTrap5500, Applied Biosystems). […] Compound 5 was quantified using LC-MS/MS (QTrap5500, Applied Biosystems). […]

[1] = Solubility assessment in water; type: physicochemical; conditions: for solubility: thermodynamic from solid
Description: Water was added slowly to 4.7 mg of compound 5 until 4.7 ml of water was added at which point the phosphate fully dissolved. The pH of the solution was estimated using litmus paper and estimated to be <3. Without a counterion, the molecular weight of the phosphate is 418 m. Therefore, at 1 mg/ml, the concentration is 2.4 mM.
For comparison, compound 3 is soluble to 0.4 μg/ml (Han et al FASEB J. 2017 31(2):491-504), which at a molecular weight of 308 is 1.3 μM.
Compound 5 was suspended in water (at weight to give a final concentration of 10 mM) and then 2 eq NaHCO3 was added.

## O=C(Nc1ccc(F)cc1Cl)c1nn(COP(=O)(O)O)c(Cl)c1Cl [compound 5, (4,5-dichloro-3-((2-chloro-4-fluorophenyl)carbamoyl)-1H-pyrazol-1-yl)methyl dihydrogen phosphate]
15-lipoxygenase; rabbits, IL4/IL13 intranasal, compound 5 10 mM 0.2 mL per nostril at 2, 4, 6 hours
  mean 15-HETE levels in nasal mucosa versus vehicle (FIG. 9): lower
15-lipoxygenase; total after NaOH hydrolysis minus free 15-HETE
  mean esterified 15-HETE levels in nasal mucosa versus vehicle (FIG. 10): lower
[1]; 1 mg/ml in water, estimated using litmus paper
  pH of the solution: < 3
[1]; disodium salt
  increase in water solubility above compound 3: 7,200 fold
[1]; disodium salt versus free phosphoric acid
  further increase in solubility as a sodium salt: 4 fold
[1]; free phosphoric acid
  increase in water solubility over compound 3: ~1800 fold
[1]; free phosphoric acid, 4.7 mg fully dissolved in 4.7 ml water, read-out: solubility in water
  solubility: 1000 µg/mL
[1]; water with 2 eq NaHCO3, aqueous buffer, disodium salt, 2 eq NaHCO3 added, read-out: concentration in water giving a clear solution
  solubility: ≥ 10000 µM
[1]; water, free phosphoric acid, at 1 mg/ml, molecular weight 418, read-out: solubility in water, concentration
  solubility: 2400 µM
